Data on one compound can be found in PMC12416277, “Phytochemical alkaloids orchestrate immunometabolism against viral infections” (National Science Review, 2025).

Series [1] concerns H1N1. As to the kind of experiment: H1N1 NP protein in A549 cells (confocal microscopy, immunoblotting). It is filed as cell-based, influenza virus A (H1N1). The procedure:
Cells were lysed in lysis buffer and the protein concentrations were determined using the BCA Protein Assay Kit. Subsequently, the protein samples were separated by SDS-PAGE electrophoresis and transferred to nitrocellulose (NC) membranes, and blocked in 5% skim milk for 1 h at room temperature. Following an overnight incubation at 4°C with specific primary antibodies, the membranes were exposed to the appropriate HPR-conjugated antibodies and visualized using enhanced chemiluminescence.
Cells were fixed with 4% PFA for 20 min, permeabilized with 0.2% Triton X-100 for 20 min, and blocked in 5% BAS for 1 h. After incubating with primary antibodies at 4℃ overnight, fluorescent secondary antibodies (Alexa-488, Alexa-594, Alexa-647) were added at RT for 1 h. Confocal microscopy analyses were carried out using Olympus FV3000 confocal microscope, and Leica TCS SP8 confocal microscope. […] Cells were then analyzed for Filipin staining signals by microscopy in the DAPI channel. […] Cells were then analyzed for signals by microscopy in the AF647 channel.
Figure S2. […] P values were calculated using one-way ANOVA.

The next series has as its system EMCV. It is filed as cell-based, encephalomyocarditis virus (EMCV).
Series [2] deals with H1N1. Nature of the series: H1N1 mRNA in WT, TPCN1-/-, TPCN2-/- A549 cells or with nimodipine, qRT-PCR. It is filed as cell-based, influenza virus A (H1N1).
Series [3] has as its system NPC1 and STING in lysosomal microdomains. Nature of the series: Lysosome immunoprecipitation with density gradient ultracentrifugation (LysoIP-DEG) in HepG2 cells. It is filed as cell-based. The procedure:
Figure 5. The dual functions of Tet to resist viral entry and activate antiviral immunity through the NPC1/STING axis. (a, b) Confocal analysis of Bio-Tet with CD63 (a) or NPC1 (b) in A549 cells, scale bar: 10 μm. (c) Binding affinity analysis of NPC1 with itraconazole, U18666A, or Tet was determined by SPR. (d, e) CETSA (d) and DARTS (e) analysis of NPC1 with Tet in HepG2 cells. (f) Streptavidin-covered beads with biotin, Bio-Tet, Bio-Tet + Tet were incubated with cell lysates. As indicated, the levels of NPC1 protein in bound proteins (IP) and total proteins (Input) were determined using immunoblotting. (g) Viral mRNA expression in siNPC1-transfected cells treated with Tet. (h) Viral mRNA expression in sgRNA-EV, sgRNA Npc1, and sgRNA Npc1 cells transfected with Flag-NPC1 treated with Tet. (i) Ifit1 and Ifit2 mRNA expression in sgRNA-EV, sgRNA Npc1, and sgRNA Npc1 cells transfected with Flag-NPC1 stimulated with DMXAA and Tet. (j) Schematic of LysoIP-DEG. (k) Immunoblotting analysis of the indicated proteins in LysoIP-DEG in Tet-treated HepG2 cells. (l) Schematic model of NPC1/STING axis-mediated viral inhibition by Tet. […] P values were calculated using one-way ANOVA (g, h, i). […]
The LysoIP-DEG was performed as previously described with minor modifications. […] The collected samples were dissolved in 50 µL 2 × SDS loading buffer and then assessed through western blotting analysis.

Regarding `COc1ccc2cc1Oc1ccc(cc1)C[C@H]1c3cc(c(OC)cc3CCN1C)Oc1c(OC)c(OC)cc3c1[C@H](C2)N(C)CC3` [Tet, tetrandrine], in the series on H1N1 [1], the “H1N1 NP protein expression” value is “effectively reduced” and the cytopathic effects entry is given as “without causing cytopathic effects”. In addition, in the series with EMCV, the EMCV attachment result is recorded as “without affecting virus attachment” and the “EMCV infection during entry or post-entry stages” value is reported as “inhibited”. Also, the H1N1 replication result in the series on H1N1 [2] is recorded as “suppressed”. For the same compound, the antiviral efficacy result with H1N1 [2] (with nimodipine treatment) was “remained unchanged”. Further, the “NPC1 and STING expression in lysosomal microdomains” value in series [3] was “enhanced NPC1 and STING expression in lysosomal microdomains after 6 hours”.
